Measured values taken from PubChem BioAssay AID330 (DTP/NCI, 2004).
Values joined by “and” are separate entries in the source; they are usually repeats but may differ in a detail not shown here. Equal entries are not always repeated. Toxic doses and inconclusive results are not listed.

Tested on: P388 leukemia ip, CD2F1 mice, survival T/C
Test: NCI In Vivo Anticancer Drug Screen. Data for tumor model P388 Leukemia (intraperitoneal) in CD2F1 (CDF1) mice
Conditions: endpoint: median survival time, higher = longer survival
How it was run: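 Mice carrying the transplanted tumor received test compound or vehicle. Survival was recorded in each group, and the value is the treated-group measurement divided by that of the vehicle-treated control group.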

[1] = dose: 12.5 mg/kg/injection, schedule: Q01DX005 (ip), vehicle: saline with Tween-80
[2] = dose: 50.0 mg/kg/injection, schedule: Q01DX009 (ip), vehicle: saline with Tween-80
[3] = dose: 60.0 mg/kg/injection, schedule: Q01DX005 (ip), vehicle: saline with Tween-80
[4] = dose: 120.0 mg/kg/injection, schedule: Q01DX005 (ip), vehicle: saline with Tween-80
[5] = dose: 240.0 mg/kg/injection, schedule: Q01DX005 (ip), vehicle: saline with Tween-80
[6] = dose: 50.0 mg/kg/injection, schedule: Q01DX009 (ip), vehicle: saline
[7] = dose: 100.0 mg/kg/injection, schedule: Q01DX009 (ip), vehicle: saline
[8] = dose: 200.0 mg/kg/injection, schedule: Q01DX009 (ip), vehicle: saline
[9] = dose: 100.0 mg/kg/injection, schedule: Q04DX003 (ip), vehicle: saline
[10] = dose: 200.0 mg/kg/injection, schedule: Q04DX003 (ip), vehicle: saline
[11] = dose: 25.0 mg/kg/injection, schedule: Q01DX005 (ip), vehicle: saline with Tween-80
[12] = dose: 50.0 mg/kg/injection, schedule: Q01DX005 (ip), vehicle: saline with Tween-80
[13] = dose: 100.0 mg/kg/injection, schedule: Q01DX005 (ip), vehicle: saline with Tween-80
[14] = dose: 100.0 mg/kg/injection, schedule: Q01DX009 (ip), vehicle: saline with Tween-80
[15] = dose: 200.0 mg/kg/injection, schedule: Q01DX005 (ip), vehicle: saline with Tween-80

CCCCCC/C=C\C(=O)O[C@H]1C(=O)O[C@@H]2C[C@H]3C(C)=C(O)C(=O)C[C@]3(C)[C@H]3[C@@H](O)[C@H](O)[C@@]4(C(=O)OC)OC[C@]32[C@@H]14
T/C (dose: 0.75 mg/kg/injection, schedule: Q01DX005 (ip), vehicle: Klucel (hydroxypropylcellulose) (HPC)): 105 % of control | T/C (dose: 1.5 mg/kg/injection, schedule: Q01DX005 (ip), vehicle: Klucel (hydroxypropylcellulose) (HPC)): 111 % of control | T/C (dose: 3.0 mg/kg/injection, schedule: Q01DX005 (ip), vehicle: Klucel (hydroxypropylcellulose) (HPC)): 112 % of control | T/C (dose: 6.0 mg/kg/injection, schedule: Q01DX005 (ip), vehicle: Klucel (hydroxypropylcellulose) (HPC)): 116 % of control

COc1ccc(Cc2cc3c(cc2OCC(N)=O)OCO3)cc1
T/C (dose: 6.25 mg/kg/injection, schedule: Q01DX005 (ip), vehicle: saline with Tween-80): 90 % of control | T/C [1]: 90 % of control

N=C1OC(C(Cl)(Cl)Cl)N(c2cccc(F)c2)C1=O (stereo not drawn)
T/C (dose: 60.0 mg/kg/injection, schedule: Q01DX005 (ip), vehicle: Klucel + Tween-80): 100 % of control | T/C (dose: 120.0 mg/kg/injection, schedule: Q01DX005 (ip), vehicle: Klucel + Tween-80): 100 % of control | T/C (dose: 240.0 mg/kg/injection, schedule: Q01DX005 (ip), vehicle: Klucel + Tween-80): 89 % of control

NC(=O)c1nc[nH]c1F
T/C (dose: 6.25 mg/kg/injection, schedule: Q01DX009 (ip), vehicle: saline with Tween-80): 102 % of control | T/C (dose: 12.5 mg/kg/injection, schedule: Q01DX009 (ip), vehicle: saline with Tween-80): 102 % of control | T/C (dose: 25.0 mg/kg/injection, schedule: Q01DX009 (ip), vehicle: saline with Tween-80): 103 % of control | T/C [2]: 104 % of control

CNC(=O)OCc1c2ccncc2c(C)c2c1[nH]c1ccccc12
T/C (dose: 6.25 mg/kg/injection, schedule: Q04DX002 (ip), vehicle: saline with Tween-80): 163 % of control | T/C (dose: 12.5 mg/kg/injection, schedule: Q04DX002 (ip), vehicle: saline with Tween-80): 150 % of control | T/C (dose: 25.0 mg/kg/injection, schedule: Q04DX002 (ip), vehicle: saline with Tween-80): 153 % of control and 167 % of control | T/C (dose: 50.0 mg/kg/injection, schedule: Q04DX002 (ip), vehicle: saline with Tween-80): 109 % of control

CON1C(=O)C(c2ccccc2)c2ccccc21 (stereo not drawn)
T/C [3]: 106 % of control | T/C [4]: 96 % of control | T/C [5]: 96 % of control

CC(C)N(CCNc1cccnc1[N+](=O)[O-])C(C)C
T/C [6]: 115 % of control | T/C [7]: 108 % of control | T/C [8]: 117 % of control

CC(=O)Nc1ccc(S(=O)(=O)OC(C)C)cc1
T/C [9]: 105 % of control | T/C [10]: 113 % of control | T/C (dose: 400.0 mg/kg/injection, schedule: Q04DX003 (ip), vehicle: saline): 118 % of control

Cc1cc(C=C2C(=O)NC(=O)NC2=O)cc(C)c1O
T/C [1]: 108 % of control | T/C [11]: 103 % of control | T/C [12]: 105 % of control and 119 % of control | T/C [13]: 117 % of control

C/C(=N/NC(=O)Cc1ccccc1)C(=NO)/C(C)=N\NC(=O)Cc1ccccc1
T/C (dose: 100.0 mg/kg/injection, schedule: Q04DX002 (ip), vehicle: saline): 101 % of control | T/C (dose: 200.0 mg/kg/injection, schedule: Q04DX002 (ip), vehicle: saline): 108 % of control | T/C (dose: 400.0 mg/kg/injection, schedule: Q04DX002 (ip), vehicle: saline): 116 % of control

O=C1C(N2CCOCC2)=C(N2CC2)C(=O)C(N2CCOCC2)=C1N1CC1
T/C (dose: 0.25 mg/kg/injection, schedule: Q01DX009 (ip), vehicle: saline): 119 % of control | T/C (dose: 0.5 mg/kg/injection, schedule: Q01DX009 (ip), vehicle: saline): 152 % of control | T/C (dose: 0.66 mg/kg/injection, schedule: Q01DX009 (ip), vehicle: saline): 153 % of control | T/C (dose: 1.0 mg/kg/injection, schedule: Q01DX009 (ip), vehicle: saline): 152 % of control and 161 % of control | T/C (dose: 1.5 mg/kg/injection, schedule: Q01DX009 (ip), vehicle: saline): 170 % of control

CCCCOC(OCCCC)C(C)N (stereo not drawn)
T/C [1]: 108 % of control | T/C [11]: 106 % of control | T/C [12]: 103 % of control and 107 % of control

CCCCCC1C(=O)CNC1(C(=O)OCC)C(=O)OCC (stereo not drawn)
T/C (dose: 12.5 mg/kg/injection, schedule: Q01DX009 (ip), vehicle: Klucel (hydroxypropylcellulose) (HPC)): 104 % of control | T/C (dose: 25.0 mg/kg/injection, schedule: Q01DX009 (ip), vehicle: Klucel (hydroxypropylcellulose) (HPC)): 108 % of control | T/C (dose: 50.0 mg/kg/injection, schedule: Q01DX009 (ip), vehicle: Klucel (hydroxypropylcellulose) (HPC)): 104 % of control | T/C (dose: 100.0 mg/kg/injection, schedule: Q01DX009 (ip), vehicle: Klucel (hydroxypropylcellulose) (HPC)): 88 % of control | T/C (dose: 200.0 mg/kg/injection, schedule: Q01DX009 (ip), vehicle: Klucel (hydroxypropylcellulose) (HPC)): 89 % of control

CC(=O)O[C@@H]1C(=O)C=C(C)[C@@H]2[C@@H](OC(=O)C=C(C)C)[C@H]3OC(=O)C[C@H]4[C@@H](C)[C@@H](O)[C@]5(O)OC[C@]34[C@H]5[C@@]12C
T/C (dose: 0.5 mg/kg/injection, schedule: Q01DX009 (ip), vehicle: distilled water + Tween-80): 118 % of control | T/C (dose: 1.0 mg/kg/injection, schedule: Q01DX009 (ip), vehicle: distilled water + Tween-80): 121 % of control | T/C (dose: 10.0 mg/kg/injection, schedule: Q01DX009 (ip), vehicle: distilled water + Tween-80): 177 % of control

CC(O)C(=O)N(CCO)CCO (stereo not drawn)
T/C (dose: 50.0 mg/kg/injection, schedule: Q01DX005 (ip), vehicle: saline): 108 % of control | T/C (dose: 100.0 mg/kg/injection, schedule: Q01DX005 (ip), vehicle: saline): 101 % of control | T/C (dose: 200.0 mg/kg/injection, schedule: Q01DX005 (ip), vehicle: saline): 104 % of control

COc1ccc2c(c1)OCCN(C)OC2c1ccccc1 (stereo not drawn)
T/C [12]: 96 % of control | T/C [13]: 95 % of control

CC(=O)c1ccc(O)c(O)c1O
T/C [7]: 103 % of control and 104 % of control | T/C [8]: 107 % of control and 120 % of control | T/C (dose: 600.0 mg/kg/injection, schedule: Q01DX009 (ip), vehicle: saline): 103 % of control and 104 % of control

Cc1nnc2sc(C(F)(F)F)nn12
T/C (dose: 50.0 mg/kg/injection, schedule: Q01DX001 (ip), vehicle: Klucel (hydroxypropylcellulose) (HPC)): 99 % of control | T/C (dose: 100.0 mg/kg/injection, schedule: Q01DX001 (ip), vehicle: Klucel (hydroxypropylcellulose) (HPC)): 98 % of control | T/C (dose: 200.0 mg/kg/injection, schedule: Q01DX001 (ip), vehicle: Klucel (hydroxypropylcellulose) (HPC)): 101 % of control

Cn1cnc2cc3c(cc2c1=O)nc1n3CCOC1
T/C (dose: 100.0 mg/kg/injection, schedule: Q04DX003 (ip), vehicle: Klucel (hydroxypropylcellulose) (HPC)): 103 % of control | T/C (dose: 200.0 mg/kg/injection, schedule: Q04DX003 (ip), vehicle: Klucel (hydroxypropylcellulose) (HPC)): 100 % of control | T/C (dose: 400.0 mg/kg/injection, schedule: Q04DX003 (ip), vehicle: Klucel (hydroxypropylcellulose) (HPC)): 93 % of control

O=C(Nc1ccc(F)cc1)N1CCOCC1
T/C [3]: 98 % of control | T/C [4]: 93 % of control | T/C [5]: 93 % of control

COP(=O)(O)NS(C)(=O)=O
T/C (dose: 25.0 mg/kg/injection, schedule: Q01DX009 (ip), vehicle: saline): 100 % of control | T/C [6]: 102 % of control | T/C [7]: 103 % of control

CCOC(=O)Oc1ccc(/C=N/NC(N)=S)nc1
T/C [2]: 163 % of control | T/C [14]: 93 % of control

CCN(SSN(CC)S(=O)(=O)c1ccc(C)cc1)S(=O)(=O)c1ccc(C)cc1
T/C [12]: 106 % of control | T/C [13]: 107 % of control | T/C [15]: 110 % of control

COc1ccc(C(=O)Nc2c(O)ccc3ccccc23)cc1OC
T/C [12]: 101 % of control | T/C [13]: 97 % of control | T/C [15]: 100 % of control

COC(=O)/C=C1\Sc2ccccc2NC1=O
T/C [2]: 96 % of control | T/C [14]: 96 % of control | T/C (dose: 200.0 mg/kg/injection, schedule: Q01DX009 (ip), vehicle: saline with Tween-80): 94 % of control

CN1C=CC(C(O)(c2ccccc2)c2ccccc2)CC1 (stereo not drawn)
T/C [12]: 99 % of control | T/C [13]: 97 % of control | T/C [15]: 100 % of control

O=C1CCCC1C(=S)S (stereo not drawn)
T/C [9]: 102 % of control | T/C [10]: 102 % of control

CCCC(=O)c1ccc(C)cc1
T/C (dose: 100.0 mg/kg/injection, schedule: Q04DX003 (ip), vehicle: saline with Tween-80): 104 % of control | T/C (dose: 200.0 mg/kg/injection, schedule: Q04DX003 (ip), vehicle: saline with Tween-80): 104 % of control | T/C (dose: 400.0 mg/kg/injection, schedule: Q04DX003 (ip), vehicle: saline with Tween-80): 86 % of control
